Measured values as given in patent publication US9199946B2, “Pyrimidinone carboxamide inhibitors of endothelial lipase” (BRISTOL-MYERS SQUIBB COMPANY, priority 2012, dated 2015).
Like-named read-outs stand apart in the source and are kept apart here.

Target: T1, Endothelial lipase (EL) (Homo sapiens, UniProt Q9Y5X9)
T1 construct: HT-1080 cells, which were transformed by RAGE technology (Athersys) to overexpress endogenous EL; endogenous in cells; conditioned medium used as the enzyme source
T1 sequence (Q9Y5X9 21-500): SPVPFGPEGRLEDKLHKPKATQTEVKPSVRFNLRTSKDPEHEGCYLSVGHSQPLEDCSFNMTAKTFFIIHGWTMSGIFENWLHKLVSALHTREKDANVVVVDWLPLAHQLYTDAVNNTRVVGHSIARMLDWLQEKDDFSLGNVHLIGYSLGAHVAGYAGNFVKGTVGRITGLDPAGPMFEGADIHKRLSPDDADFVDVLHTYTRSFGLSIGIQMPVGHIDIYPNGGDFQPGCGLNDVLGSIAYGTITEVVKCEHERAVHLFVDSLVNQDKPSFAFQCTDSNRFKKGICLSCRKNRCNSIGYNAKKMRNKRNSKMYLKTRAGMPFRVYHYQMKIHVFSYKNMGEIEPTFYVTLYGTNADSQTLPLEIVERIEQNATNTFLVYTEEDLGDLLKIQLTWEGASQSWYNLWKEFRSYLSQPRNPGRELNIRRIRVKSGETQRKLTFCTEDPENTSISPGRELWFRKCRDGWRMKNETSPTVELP
Experiment: Endothelial lipase (EL) enzymatic assay with fluorescent substrate A10070 in DMPG vesicles
Assay type: biochemical
In short: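 EL activity was followed as a fluorescence rate (488/530 nm, reads every 20 s for 10 min, linear slope) on A10070 doped at 0.05 mole fraction into sonicated DMPG vesicles. Compound was first incubated 20 min at 37 °C, pH 8.0 HEPES/CaCl2 buffer, with conditioned media from EL-overexpressing HT-1080 cells.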

[1] = conditioned media from HT-1080 cells overexpressing endogenous EL, 20 min preincubation at 37° C., read-out: EL IC50
[2] = range observed in the EL assay, read-out: EL IC50 values

Nc1c(C(=O)NC2CCN(c3ncccc3Cl)C2)[nH]c(=O)[nH]c1=O (centres unmarked) [Example 186, 5-amino-N-(1-(3-chloropyridin-2-yl)pyrrolidin-3-yl)-2,6-dioxo-1,2,3,6-tetrahydropyrimidine-4-carboxamide]
IC50 [1]: 0.042 µM
IC50 [2]: ≤ 10 µM

NS(=O)(=O)c1ccc(CCNc2c(C(=O)N[C@H]3CC[C@@H](c4ccccc4)CC3)[nH]c(=O)[nH]c2=O)cc1 [Example 226, 2,6-dioxo-N-(cis-4-phenylcyclohexyl)-5-(4-sulfamoylphenethylamino)-1,2,3,6-tetrahydropyrimidine-4-carboxamide]
IC50 [2]: ≤ 10 µM

O=C(N[C@H]1CC[C@@H](c2ccccc2)CC1)c1[nH]c(=O)[nH]c(=O)c1NC1CCC1 [Example 233, 5-(cyclobutylamino)-2,6-dioxo-N-(cis-4-phenylcyclohexyl)-1,2,3,6-tetrahydropyrimidine-4-carboxamide]
IC50 [2]: ≤ 10 µM

Nc1c(C(=O)N[C@H]2CC[C@@H](c3nc(-c4ccc(Cl)c(Cl)c4)no3)CC2)[nH]c(=O)[nH]c1=O [Example 48, 5-amino-N-(cis-4-(3-(3,4-dichlorophenyl)-1,2,4-oxadiazol-5-yl)cyclohexyl)-2,6-dioxo-1,2,3,6-tetrahydropyrimidine-4-carboxamide]
IC50 [1]: 0.447 µM
IC50 [2]: ≤ 10 µM

Nc1c(C(=O)NC2CCC(c3cnn(Cc4ccccc4)c3)C2)[nH]c(=O)[nH]c1=O (centres unmarked) [Example 102, 5-amino-N-(3-(1-benzyl-1H-pyrazol-4-yl)cyclopentyl)-2,6-dioxo-1,2,3,6-tetrahydropyrimidine-4-carboxamide]
IC50 [2]: ≤ 10 µM

Nc1c(C(=O)NC2CCN(C(=O)Nc3ccc(C(F)(F)F)cc3)c3ccccc32)[nH]c(=O)[nH]c1=O (centres unmarked) [Example 26, 4-(5-amino-2,6-dioxo-1,2,3,6-tetrahydropyrimidine-4-carboxamido)-N-(4-(trifluoromethyl)phenyl)-3,4-dihydroquinoline-1(2H)-carboxamide]
IC50 [1]: 9.86 µM
IC50 [2]: ≤ 10 µM

O=C(N[C@@H]1CCCc2c1cccc2C(F)(F)F)c1[nH]c(=O)[nH]c(=O)c1O [Example 254, (R)-5-hydroxy-2,6-dioxo-N-(5-(trifluoromethyl)-1,2,3,4-tetrahydronaphthalen-1-yl)-1,2,3,6-tetrahydropyrimidine-4-carboxamide]
IC50 [2]: ≤ 10 µM

O=C(O)Cn1c(=O)[nH]c(C(=O)N[C@H]2CC[C@@H](c3ccccc3)CC2)c(O)c1=O [Example 267, 2-(5-Hydroxy-2,6-dioxo-4-((cis-4-phenylcyclohexyl)carbamoyl)-2,3-dihydropyrimidin-1(6H)-yl)acetic acid]
IC50 [1]: 1.42 µM
IC50 [2]: ≤ 10 µM

O=C(N[C@@H]1CC[C@H](c2ccccc2)C1)c1[nH]c(=O)[nH]c(=O)c1O [Example 271, 5-Hydroxy-2,6-dioxo-N-((1R,3S)-3-phenylcyclopentyl)-1,2,3,6-tetrahydropyrimidine-4-carboxamide]
IC50 [2]: ≤ 10 µM

O=C(N[C@H]1CC[C@@H](c2ccccc2)CC1)c1[nH]c(=O)[nH]c(=O)c1NCc1cccc(C(F)(F)F)c1 [Example 222, 2,6-dioxo-N-(cis-4-phenylcyclohexyl)-5-(3-(trifluoromethyl)benzylamino)-1,2,3,6-tetrahydropyrimidine-4-carboxamide]
IC50 [2]: ≤ 10 µM

O=C(N[C@H]1CC[C@@H](c2ccccc2)CC1)c1[nH]c(=O)[nH]c(=O)c1NC1CCN(Cc2ccccc2)C1 (stereo partly drawn) [Example 223, 5-(1-benzylpyrrolidin-3-ylamino)-2,6-dioxo-N-(cis-4-phenylcyclohexyl)-1,2,3,6-tetrahydropyrimidine-4-carboxamide]
IC50 [2]: ≤ 10 µM

CO[C@]1(c2ccc(F)cc2)CC[C@@H](NC(=O)c2[nH]c(=O)[nH]c(=O)c2N)CC1 [Example 4, 5-amino-N-(cis-4-(4-fluorophenyl)-4-methoxycyclohexyl)-2,6-dioxo-1,2,3,6-tetrahydropyrimidine-4-carboxamide]
IC50 [2]: ≤ 10 µM

O=C(NC1CCCc2c(NS(=O)(=O)c3ccccc3)cccc21)c1[nH]c(=O)[nH]c(=O)c1O (centres unmarked) [Example 287, 5-hydroxy-2,6-dioxo-N-(5-(phenylsulfonamido)-1,2,3,4-tetrahydronaphthalen-1-yl)-1,2,3,6-tetrahydropyrimidine-4-carboxamide]
IC50 [2]: ≤ 10 µM

O=C(Nc1ccccc1)N[C@H]1CC[C@@H](NC(=O)c2[nH]c(=O)[nH]c(=O)c2O)CC1 [Example 280, 5-hydroxy-2,6-dioxo-N-(cis-4-(3-phenylureido)cyclohexyl)-1,2,3,6-tetrahydropyrimidine-4-carboxamide]
IC50 [1]: 3.14 µM
IC50 [2]: ≤ 10 µM

Nc1c(C(=O)N[C@@H]2CCC[C@H]2OCc2ccccc2)[nH]c(=O)[nH]c1=O [Example 63, 5-amino-N-((1R,2R)-2-(benzyloxy)cyclopentyl)-2,6-dioxo-1,2,3,6-tetrahydropyrimidine-4-carboxamide]
IC50 [2]: ≤ 10 µM

COc1cccc2c1C(NC(=O)c1[nH]c(=O)[nH]c(=O)c1N)CCC2 (single isomer, unassigned; enantiomer a) [Example 201, 5-amino-N-(8-methoxy-1,2,3,4-tetrahydronaphthalen-1-yl)-2,6-dioxo 1,2,3,6-tetrahydropyrimidine-4-carboxamide (Enantiomer A)]
IC50 [2]: ≤ 10 µM

O=C(N[C@H]1CC[C@@H](c2ccccc2)CC1)c1[nH]c(=O)[nH]c(=O)c1NCc1ccc(F)cc1 [Example 205, 5-(4-Fluorobenzylamino)-2,6-dioxo-N-(cis-4-phenylcyclohexyl)-1,2,3,6-tetrahydropyrimidine-4-carboxamide]
IC50 [2]: ≤ 10 µM

CC(C)(O)CNc1c(C(=O)N[C@H]2CC[C@@H](c3ccccc3)CC2)[nH]c(=O)[nH]c1=O [Example 234, 5-(2-hydroxy-2-methylpropylamino)-2,6-dioxo-N-(cis-4-phenylcyclohexyl)-1,2,3,6-tetrahydropyrimidine-4-carboxamide]
IC50 [1]: 0.439 µM
IC50 [2]: ≤ 10 µM

O=C(N[C@@H]1CC[C@@H](c2ccccc2)C1)c1[nH]c(=O)[nH]c(=O)c1O [Example 272, 5-hydroxy-2,6-dioxo-N-((1R,3R)-3-phenylcyclopentyl)-1,2,3,6-tetrahydropyrimidine-4-carboxamide]
IC50 [2]: ≤ 10 µM

Nc1c(C(=O)N[C@@H]2CCCc3cc(C(F)(F)F)ccc32)[nH]c(=O)[nH]c1=O [Example 51, (R)-5-amino-2,6-dioxo-N-(6-(trifluoromethyl)-1,2,3,4-tetrahydronaphthalen-1-yl)-1,2,3,6-tetrahydropyrimidine-4-carboxamide]
IC50 [2]: ≤ 10 µM

Nc1c(C(=O)N[C@@H]2C[C@@H](c3ccccc3)c3ccccc32)[nH]c(=O)[nH]c1=O [Example 42, 5-amino-2,6-dioxo-N-((1R,3S)-3-phenyl-2,3-dihydro-1H-inden-1-yl)-1,2,3,6-tetrahydropyrimidine-4-carboxamide]
IC50 [2]: ≤ 10 µM

Nc1c(C(=O)N[C@@H]2CC[C@H](c3ccccc3)c3ccccc32)[nH]c(=O)[nH]c1=O [Example 19, 5-amino-2,6-dioxo-N-((1R,4R)-4-phenyl-1,2,3,4-tetrahydronaphthalen-1-yl)-1,2,3,6-tetrahydropyrimidine-4-carboxamide]
IC50 [2]: ≤ 10 µM

COC(=O)C1CCCCC1NC(=O)c1[nH]c(=O)[nH]c(=O)c1N (centres unmarked) [Example 56, methyl 2-(5-amino-2,6-dioxo-1,2,3,6-tetrahydropyrimidine-4-carboxamido) cyclohexanecarboxylate]
IC50 [2]: ≤ 10 µM
